{
  "source": "patent US10160780B2",
  "about": "“Compound extracted from husk and fruit stem of Xanthoceras sobifolia and its extracting method and use thereof” (priority 2004, dated 2018)",
  "key": {"[1]": {"tested_on": "mice", "test": "Y maze test of learning and memory ability of mice", "format": "in vivo", "conditions": "fed 9 mg/kg, Y maze after 40 minutes, incorrect alternations before 10 continuous correct choices", "description": "20 female and male mice weighted 18˜23 g were selected and divided evenly into two groups. The treatment group was fed with total dose of Xanthoceraside at the ratio of 9 mg/kg mice weight, and the control group was fed with the same amount of normal saline. After 40 minutes, they were put into Y maze respectively for performance observation. The number of incorrect alternations for a mice were recorded before it made correct choices continuously for 10 times. If errors more than 30, cutting the value to 30."}, "[2]": {"tested_on": "mice", "test": "Y maze test, memory retrieval impairment of mice induced by scopolamine", "format": "in vivo", "conditions": "scopolamine 2.0 mg/kg, then injection 6 mg/kg, Y maze after 20 minutes", "description": "Mice were trained based on the stochastic three arms Y maze test, to screen those who had less than 30 errors of alternation before they continuously made correct choices for 10 times. After relaxed for 24 hours, the selected ones were randomized into two groups and for all of them scopolamine was injected into celiac at the ratio of 2.0 mg/kg mice weight to cause their learning and memory impairment. After 15 minutes, the mice in the treatment group were given an injection of total dose of Xanthoceraside at ratio of 6 mg/kg mice weight, while those in the control group were given an injection of the same amount of normal saline. After 20 minutes, they were arranged respectively into Y maze and the number of incorrect alternations before they made correct choices continuously for 10 times."}, "[3]": {"tested_on": "mice", "test": "regular static hypoxia tolerance in an isolated environment (death time)", "format": "in vivo", "conditions": "oral 2 mg twice a day for 6 days", "description": "The above obtained Xanthoceraside was for the test of regular static hypoxia tolerance in an isolated environment to observe the effect of Xanthoceraside on death time of animals.\nThe test consisted of two sections. Each section was divided into two groups: control and treatment. There were three measurements to calculate death time of the mice. Those in treatment group took oral dosing of 2 mg of Xanthoceraside twice a day for 6 days. The three parameters are: • The average death time of whole group (xt); • The super average death time (xp): based on the average death time of the control group (xc), calculate the death time (xp), which is greater than the control group (xc), and calculate the mean. • The delayed death time (xp-xc): the super average death time (xp) minus the control group (xc) and calculated the mean."}, "[4]": {"tested_on": "HL-60 human leukemia", "test": "anti-tumor activity in vitro, MTT", "format": "cell-based", "from_the_text": "(§1) Take Xanthoceraside derived from the example 3 to do a test on tumor cell in vitro."}, "[5]": {"tested_on": "BGC-823 human gastric cancer", "test": "anti-tumor activity in vitro, SRB", "format": "cell-based", "conditions": "BGC-823, SRB", "from_the_text": "as §1"}, "[6]": {"tested_on": "Bel-7402 human liver cancer", "test": "anti-tumor activity in vitro, SRB", "format": "cell-based", "conditions": "Bel-7402, SRB", "from_the_text": "as §1"}, "[7]": {"tested_on": "MDA-MB-435 human breast cancer", "test": "anti-tumor activity in vitro, SRB", "format": "cell-based", "conditions": "MDA-MB-435, SRB", "from_the_text": "as §1"}, "[8]": {"tested_on": "PC-3MIE8 human prostate cancer", "test": "anti-tumor activity in vitro, SRB", "format": "cell-based", "conditions": "PC-3MIE8, SRB", "from_the_text": "as §1"}, "[9]": {"tested_on": "Hela cervical cancer", "test": "anti-tumor activity in vitro, SRB", "format": "cell-based, human", "from_the_text": "as §1"}},
  "note": "Like-named read-outs stand apart in the source and are kept apart here.",
  "data": [
    {"smiles": "C/C=C(/C)C(=O)O[C@H]1[C@H](OC(=O)/C(C)=C\\C)C2(CO)C(CC1(C)C)C1=CCC3[C@@]4(C)CC[C@H](OC5OC(C(=O)O)C(O)C(OC6OC(CO)C(O)C6O)C5OC5OC(CO)C(O)C(O)C5O)C(C)(C)C4CC[C@@]3(C)[C@]1(C)[C@@H](O)[C@H]2O", "note": "(stereo partly drawn) [Xanthoceraside, 3-O-(α-L-arabinofuranosyl(1→3)-β-D-galactopyranosyl(1→2))-β-D-glucuronopyranosyl-21,22-diangeloyl-R1-barrigenol]", "values": [
      {"measurement": "Error frequency (X ± SD)", "setting": "[1]", "value": "6.9 ± 2.3"},
      {"measurement": "Error frequency (X ± SD)", "setting": "[2]", "value": "4.0 ± 1.5"},
      {"measurement": "xp − xc, delayed death time", "setting": "[3]; First section", "value": "14.59 ± 14.83(17) min"},
      {"measurement": "xp, super average death time", "setting": "[3]; First section", "value": "56.51 ± 14.59(17) min"},
      {"measurement": "xt, average death time of whole group", "setting": "[3]; First section", "value": "41.84 ± 15.35(30) min"},
      {"measurement": "xp − xc, delayed death time", "setting": "[3]; Second section", "value": "8.40 ± 4.94(33) min"},
      {"measurement": "xp, super average death time", "setting": "[3]; Second section", "value": "33.40 ± 4.94(33) min"},
      {"measurement": "xt, average death time of whole group", "setting": "[3]; Second section", "value": "31.55 ± 6.68(41) min"},
      {"measurement": "IC50", "setting": "[4]; HL-60, MTT", "value": 41.29, "unit": "µg/mL"},
      {"measurement": "Inhibition ratio (%)", "setting": "[4]; HL-60, MTT, 0.5 μg/ml", "value": 9.34, "unit": "%"},
      {"measurement": "Inhibition ratio (%)", "setting": "[4]; HL-60, MTT, 5.0 μg/ml", "value": 17.68, "unit": "%"},
      {"measurement": "Inhibition ratio (%)", "setting": "[4]; HL-60, MTT, 50.0 μg/ml", "value": 56.90, "unit": "%"},
      {"measurement": "IC50", "setting": "[4]; Homo sapiens, HL-60, HL-60, MTT, read-out: IC50", "value": 41.9, "unit": "µg/mL"},
      {"measurement": "Inhibition ratio (%)", "setting": "[5]; 0.5 μg/ml", "value": "−11.71", "unit": "%"},
      {"measurement": "Inhibition ratio (%)", "setting": "[5]; 5.0 μg/ml", "value": "−5.92", "unit": "%"},
      {"measurement": "Inhibition ratio (%)", "setting": "[5]; 50.0 μg/ml", "value": 92.45, "unit": "%"},
      {"measurement": "IC50", "setting": "[5]; Homo sapiens", "value": 40.2, "unit": "µg/mL"},
      {"measurement": "Inhibition ratio (%)", "setting": "[6]; 0.5 μg/ml", "value": "−9.78", "unit": "%"},
      {"measurement": "Inhibition ratio (%)", "setting": "[6]; 5.0 μg/ml", "value": "−1.24", "unit": "%"},
      {"measurement": "Inhibition ratio (%)", "setting": "[6]; 50.0 μg/ml", "value": 92.96, "unit": "%"},
      {"measurement": "IC50", "setting": "[6]; Homo sapiens", "value": 39.3, "unit": "µg/mL"},
      {"measurement": "IC50", "setting": "[7]; Homo sapiens", "value": 18.6, "unit": "µg/mL"},
      {"measurement": "Inhibition ratio (%)", "setting": "[7]; 0.5 μg/ml", "value": "−4.50", "unit": "%"},
      {"measurement": "Inhibition ratio (%)", "setting": "[7]; 5.0 μg/ml", "value": 2.92, "unit": "%"},
      {"measurement": "Inhibition ratio (%)", "setting": "[7]; 50.0 μg/ml", "value": 93.14, "unit": "%"},
      {"measurement": "IC50", "setting": "[8]; Homo sapiens", "value": 41, "unit": "µg/mL"},
      {"measurement": "Inhibition ratio (%)", "setting": "[8]; 0.5 μg/ml", "value": "−13.90", "unit": "%"},
      {"measurement": "Inhibition ratio (%)", "setting": "[8]; 5.0 μg/ml", "value": "−7.63", "unit": "%"},
      {"measurement": "Inhibition ratio (%)", "setting": "[8]; 50.0 μg/ml", "value": 92.03, "unit": "%"},
      {"measurement": "Inhibition ratio (%)", "setting": "[9]; 0.5 μg/ml", "value": "−12.72", "unit": "%"},
      {"measurement": "Inhibition ratio (%)", "setting": "[9]; 5.0 μg/ml", "value": "−4.05", "unit": "%"},
      {"measurement": "Inhibition ratio (%)", "setting": "[9]; 50.0 μg/ml", "value": 95.49, "unit": "%"},
      {"measurement": "IC50", "setting": "[9]; Homo sapiens", "value": 34.2, "unit": "µg/mL"}
    ]}
  ]
}
